Reference: ChEMBL document CHEMBL1150352, “Novel substituted aminoalkylguanidines as potential antihyperglycemic and food intake-reducing agents” (2008)

How the values were obtained:
Assay type in all cases: functional
Settings in all cases: route subcutaneous
[1] = tested on: Mus musculus; test: Antihyperglycemic activity in C57BL/KsJ db/db mouse at 25 mg/kg, sc administered twice a day for 4 days and once on day 5 after 60 mins of load injection by insulin suppression test relative to control
[2] = tested on: Mus musculus; test: Antihyperglycemic activity in C57BL/KsJ db/db mouse assessed as reduction in water consumption at 25 mg/kg, sc administered twice a day for 4 days and once on day 5 relative to control; design: scale not given: the % may be the effect or the level left
[3] = tested on: Mus musculus; test: Antihyperglycemic activity in C57BL/KsJ db/db mouse assessed as reduction in food intake at 25 mg/kg, sc administered twice a day for 4 days and once on day 5 relative to control; design: scale not given: the % may be the effect or the level left
[4] = tested on: Mus musculus; test: Antihyperglycemic activity in C57BL/KsJ db/db mouse at 25 mg/kg, sc administered twice a day for 4 days once on day 5 immediately after load injection by insulin suppression test relative to control
[5] = tested on: Mus musculus; test: Antihyperglycemic activity in C57BL/KsJ db/db mouse at 13 mg/kg, sc administered twice a day for 4 days once on day 5 by insulin suppression test relative to control
[6] = tested on: Mus musculus; test: Antihyperglycemic activity in C57BL/KsJ db/db mouse at 130 mg/kg, sc administered twice a day for 4 days once on day 5 by insulin suppression test relative to control
[7] = tested on: Mus musculus; test: Antihyperglycemic activity in C57BL/KsJ db/db mouse at 5 mg/kg, sc administered twice a day for 4 days once on day 5 after 60 mins of load injection by insulin suppression test relative to control
[8] = tested on: Mus musculus; test: Antihyperglycemic activity in C57BL/KsJ db/db mouse at 5 mg/kg, sc administered twice a day for 4 days once on day 5 immediately after load injection by insulin suppression test relative to control

SMILES | Activity [1] [%] | Activity [2] [%] | Activity [3] [%] | Activity [4] [%] | Activity [5] [%] | Activity [6] [%] | Activity [7] [%] | Activity [8] [%]
CC(C)=CCNC(=N)NCCCCN | -11 | -53 | -37 | -13 |  |  |  | 
N=C(NCCCCN)NCCCc1ccccc1 | -8 | -44 | -33 | 12 |  |  |  | 
CC(C)CCNC(=N)NCCCCCCN | -24 | -24 | -14 | -17 |  |  |  | 
N=C(NCCCCCCBr)NCC1CC1 | -20 | -30 | -22 | -12 |  |  |  | 
CC(C)=CCNC(=N)NCCCCCCN | -13 | -53 | -19 | -31 |  |  |  | 
N=C(NCC1CCC(CN)CC1)NCC1CC1 (configuration not stated) | -43 | -59 | -40 | -29 |  |  |  | 
CC(C)=CCNC(=N)N[C@H]1CC[C@H](N)CC1 | -22 | -44 | -27 | -14 |  |  |  | 
CC(C)=CCNC(=N)NCCCCCN | -13 | -57 | -41 | -15 |  |  |  | 
CC(C)=CCNC(=N)NCC1CCC(CN)CC1 (configuration not stated) | -29 | -29 | -21 | -8 |  |  |  | 
N=C(NCCCCCCN)NCC1CC1 | -18 | -45 | -19 | -42 |  |  |  | 
CN1CCN(/C(=N\c2ccc(F)cc2)NCCCCCCN)CC1 | -12 | -35 | -14 | -21 |  |  |  | 
NCCCCCCN/C(=N/c1ccc(F)cc1)N1CCCCC1 | -8 | -41 | -22 | -15 |  |  |  | 
CN(C)C(=N)NC(=N)N [METFORMIN] |  |  |  |  | -11 | -22 |  | 
CN(CCOc1ccc(CC2SC(=O)NC2=O)cc1)c1ccccn1 (configuration not stated) [ROSIGLITAZONE] |  |  |  |  |  |  | -39 | -29
